The values that follow come from publication PMC5966831 (Biochemistry, 2013).

The target of one series is N′186 (Caldanaerobacter subterraneus, UniProt Q8RD41, C137S/L167D). Format: binding. As to conditions: SD, n = 3.
For the next series, the target named is N′70 (Caldanaerobacter subterraneus, UniProt Q8RD41, C137S/L167D). Format: binding. As to conditions: SD, n = 3.
Series [1] concerns the target T1, AFF70 (Caldanaerobacter subterraneus, UniProt Q8RD41, C137S/F53A/F54A/INS105C/L167D). The experiment in a line: Equilibrium fluorescence. In kind it is binding.
The target of series [2] is T2, AFF186 (Caldanaerobacter subterraneus, UniProt Q8RD41, C137S/D254S/INS221C/L167D). As to the kind of experiment: Equilibrium fluorescence. In kind it is binding.
For another series, the target named is N′60 (Caldanaerobacter subterraneus, UniProt Q8RD41, C137S/L167D). Format: binding. As to conditions: SD, n = 3.
The target of series [3] is T3, AFF210 (Caldanaerobacter subterraneus, UniProt Q8RD41, C137S/D254S/INS245C/L167D). The experiment in a line: Equilibrium fluorescence. Format: binding.
Series [4] has as its target T3, AFF210. Format: binding. As to conditions: SD, n = 3.
Series [5] concerns the target T1, AFF70. In kind it is binding. Conditions: SD, n = 3.
Series [6] has as its target T2, AFF186. In kind it is binding. As to conditions: SD, n = 3.
The next series concerns the target N′210 (Caldanaerobacter subterraneus, UniProt Q8RD41, C137S/L167D). In kind it is binding. As to conditions: SD, n = 3.
Series [7] can be described thus: Thermal denaturation monitored by circular dichroism. Format: physicochemical. As to conditions: E. coli RBP and its permutants, apo forms, Figure S7. On the technique in general: CD spectra are sensitive to the conformation of chiral molecules.

Like-named read-outs stand apart in the source and are kept apart here.

For `OC1OC[C@@H](O)[C@@H](O)[C@H]1O` (stereo partly drawn) [ribose, D-ribose], the Kd – broadly, the equilibrium constant for the complex coming apart – at N′186 was 38.1 ± 0.4 nM; on N′70, 2740 ± 240 nM; on AFF70 [1] it was 4200 nM; at AFF186 [2], 12300 nM; at N′60, 21.3 ± 1.1 nM; at AFF210 [3], 4200 nM. In addition, the Kd amounted to 26.1 ± 1.5 nM at AFF210 [4], 46.6 ± 5.5 nM at AFF70 [5], 58.8 ± 0.17 nM at AFF186 [6] and 21.6 ± 1.4 nM on N′210.

B1: E. coli RBP: Escherichia coli ribose binding protein (protein, UniProt P02925 26-296, looked up)
Ribose import binding protein …: KDTIALVVSTLNNPFFVSLKDGAQKEADKLGYNLVVLDSQNNPAKELANVQDLTVRGTKILLINPTDSDAVGNAVKMANQANIPVITLDRQATKGEVVSHIASDNVLGGKIAGDYIAKKAGEGAKVIELQGIAGTSAARERGEGFQQAVAAHKFNVLASQPADFDRIKGLNVMQNLLTAHPDVQAVFAQNDEMALGALRALQTAGKSDVMVVGFDGTPDGEKAVNDGKLAATIAQLPDQIGAKGVETADKVLKGEKVQAKYPVDLKLVVKQ
As to B1, the Tm (commonly the temperature at the midpoint of the melting transition) in series [7] turned out to be 55 °C.
